Measurements reported in article PMC5748275, “Novel Aryl Substituted Pyrazoles as Small Molecule Inhibitors of Cytochrome P450 CYP121A1: Synthesis and Antimycobacterial Evaluation” (Journal of Medicinal Chemistry, 2017).

Target: T1, CYP121A1 (Mycobacterium tuberculosis, UniProt P9WPP7)
T1 construct: made in house
Format: binding
Settings: heme Soret peak position, ligand-free to apparent saturation

T1 sequence (P9WPP7 whole entry): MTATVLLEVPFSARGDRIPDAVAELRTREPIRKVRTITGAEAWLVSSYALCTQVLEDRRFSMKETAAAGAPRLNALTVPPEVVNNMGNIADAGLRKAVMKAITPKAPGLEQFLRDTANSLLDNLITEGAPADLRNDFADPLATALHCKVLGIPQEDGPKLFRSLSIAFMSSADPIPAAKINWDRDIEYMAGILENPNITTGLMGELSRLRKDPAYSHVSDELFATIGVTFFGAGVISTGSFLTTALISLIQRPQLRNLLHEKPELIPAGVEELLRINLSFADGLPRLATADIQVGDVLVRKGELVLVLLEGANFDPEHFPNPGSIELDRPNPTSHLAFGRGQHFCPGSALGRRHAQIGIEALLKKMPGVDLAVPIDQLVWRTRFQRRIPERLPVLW

| Compound | Soret peak shift |
| --- | --- |
| c1ccc(-c2nn(-c3ccccc3)cc2Cn2ccnc2)cc1 [7a, (1,3-Diphenyl)-4-((1,3-imidazol-1-yl)methyl)-1H-pyrazole] | 416–423.5 nm |
| Fc1ccc(-c2nn(-c3ccccc3)cc2Cn2ccnc2)cc1 [7b, 4-((1H-Imidazol-1-yl)methyl)-3-(4-fluorophenyl)-1-phenyl-1H-pyrazole] | 416–423.5 nm |
| Clc1ccc(-c2nn(-c3ccccc3)cc2Cn2ccnc2)cc1 [7c, 4-((1H-Imidazol-1-yl)methyl)-3-(4-chlorophenyl)-1-phenyl-1H-pyrazole] | 416–422 nm |
| Cc1ccc(-c2nn(-c3ccccc3)cc2Cn2ccnc2)cc1 [7d, 4-((1H-Imidazol-1-yl)methyl)-1-phenyl-3-(p-tolyl)-1H-pyrazole] | 416–421.5 nm |
| COc1ccc(-c2nn(-c3ccccc3)cc2Cn2ccnc2)cc1 [7e, 4-((1H-Imidazol-1-yl)methyl)-3-(4-methoxyphenyl)-1-phenyl-1H-pyrazole] | 416–421 nm |
| Brc1ccc(-c2nn(-c3ccccc3)cc2Cn2ccnc2)cc1 [7f, 4-((1H-Imidazole-1-yl)methyl)-3-(4-bromophenyl)-1-phenyl-1H-pyrazole] | 416–420 nm |
| Ic1ccc(-c2nn(-c3ccccc3)cc2Cn2ccnc2)cc1 [7g, 4-((1H-Imidazole-1-yl)methyl)-3-(4-iodophenyl)-1-phenyl-1H-pyrazole] | 416–422 nm |
| N#Cc1ccc(-c2nn(-c3ccccc3)cc2Cn2ccnc2)cc1 [7h, 4-(4-((1H-Imidazol-1-yl)methyl)-1-phenyl-1H-pyrazol-3-yl)benzonitrile] | 416–418 nm |
| c1ccc(-c2nn(-c3ccccc3)cc2Cn2cncn2)cc1 [8a, 1-((1,3-Diphenyl-1H-pyrazol-4-yl)methyl)-1H-[1,2,4]triazole] | 416–422 nm |
| Fc1ccc(-c2nn(-c3ccccc3)cc2Cn2cncn2)cc1 [8b, 1-((3-(4-Fluorophenyl)-1-phenyl-1H-pyrazole-4-yl)methyl)-1H-1,2,4-triazole] | 416–423 nm |
| Clc1ccc(-c2nn(-c3ccccc3)cc2Cn2cncn2)cc1 [8c, 1-((3-(4-Chlorophenyl)-1-phenyl-1H-pyrazole-4-yl)methyl)-1H-1,2,4-triazole] | 416–421 nm |
| Cc1ccc(-c2nn(-c3ccccc3)cc2Cn2cncn2)cc1 [8d, 1((1-Phenyl-3-(p-tolyl)-1H-pyrazol-4-yl)methyl)-1H-1,2,4-triazole] | 416–418 nm |
| COc1ccc(-c2nn(-c3ccccc3)cc2Cn2cncn2)cc1 [8e, 1-((3-(4-Methoxyphenyl)-1-phenyl-1H-pyrazol-4-yl)methyl)-1H-1,2,4-triazole] | 416–420 nm |
| Brc1ccc(-c2nn(-c3ccccc3)cc2Cn2cncn2)cc1 [8f, 1-((3-(4-Bromophenyl)-1-phenyl-1H-pyrazol-4-yl)methyl)-1H-1,2,4-triazole] | 416–417.5 nm |
| Ic1ccc(-c2nn(-c3ccccc3)cc2Cn2cncn2)cc1 [8g, 1-((3-(4-Iodophenyl)-1-phenyl-1H-pyrazol-4-yl)methyl)-1H-1,2,4-triazole] | no binding |
| N#Cc1ccc(-c2nn(-c3ccccc3)cc2Cn2cncn2)cc1 [8h] | no binding |
| O=C(NCCn1ccnc1)c1cn(-c2ccccc2)nc1-c1ccc(F)cc1 [13b, N-(2-(1H-Imidazol-1-yl)ethyl)-3-(4-fluorophenyl)-1-phenyl-1H-pyrazole-4-carboxamide] | no binding |
| O=C(NCCn1ccnc1)c1cn(-c2ccccc2)nc1-c1ccc(Cl)cc1 [13c, N-(2-(1H-Imidazol-1-yl)ethyl)-3-(4-chlorophenyl)-1-phenyl-1H-pyrazole-4-carboxamide] | no binding |
